The numbers were not newly measured in EP0716679B1, “METHOD OF CLEANING VINYL SURFACES BY MEANS OF MILDLY ACIDIC HARD SURFACE CLEANING COMPOSITIONS CONTAINING AMINE OXIDE DETERGENT SURFACTANTS” (THE PROCTER & GAMBLE COMPANY, priority 1993, dated 1995), which cites them from elsewhere.

Where two headings read alike, the source gives them in different places.

With `O=C(O)CN(CCN(CC(=O)O)CC(=O)O)CC(=O)O` [Ethylene diamine tetraacetic acid], the “pKa of acidifying agent” value (first pKa) is 1.7, the “pKa of acidifying agent” value (fourth pKa printed) is on record as 10.6, the “pKa of acidifying agent” value (second pKa) is given as 2.6 and the “pKa of acidifying agent” value (third pKa printed) is recorded as 6.3.
For the molecule `O=C(O)C(=O)O` [Oxalic acid], the “pKa of acidifying agent” value (first pKa) is […] and the “pKa of acidifying agent” value (second pKa) was […].
Turning to `O=C(O)CC(O)C(=O)O` (stereo not shown) [Malic acid], the “pKa of acidifying agent” value (second pKa) was 5.05.
